Experimental data: ChEMBL document CHEMBL3352106, “Phosphocalyculin C as a pyrophosphate protoxin of calyculin C in the marine sponge Discodermia calyx” (Bioorg Med Chem Lett, 2014)

Tested on: P388
Assay: Cytotoxicity against mouse P388 cells assessed as reduction in cell viability
Assay type: functional, cell-based

SMILES | IC50
COC[C@@H]([C@H](O)[C@H](O)C(=O)N[C@H](C)C[C@H](C)c1nc(/C=C/C[C@@H]2O[C@]3(C[C@@H](O)[C@@H]2C)O[C@H]([C@H](C[C@H](O)[C@H](C)[C@H](O)[C@H](C)/C=C(C)/C(C)=C/C=C/C(C)=C\C#N)OC)[C@H](OP(=O)(O)O)C3(C)C)co1)N(C)C [CALYCULIN] | 0.007 nM
COC[C@@H]([C@H](O)[C@H](O)C(=O)N[C@H](C)C[C@H](C)c1nc(/C=C/C[C@@H]2O[C@]3(C[C@@H](O)[C@@H]2C)O[C@H]([C@H](C[C@H](O)[C@H](C)[C@H](O)[C@H](C)/C=C(C)/C(C)=C/C=C/C(C)=C\C#N)OC)[C@H](OP(=O)(O)OP(=O)(O)O)C3(C)C)co1)N(C)C | 36 nM
